Reference: ChEMBL document CHEMBL3046912, “Effectiveness of 1,3-dichloropropene as an alternative to methyl bromide in rotations of tomato (Solanum lycopersicum) and cucumber (Cucumis sativus) in China” (2012)
Calls of active or inactive are those of the source. The calls are words filed in the database; no cut-off is given here.

How the values were obtained:
[1] = system: Solanum lycopersicum; assay: Increase in plant height of Solanum lycopersicum (tomato) exposed to 90 L/ha compound fumigation treatment measured 30 days after compound treatment (reference value: 28.4 cm); assay type: functional
[2] = system: Solanum lycopersicum; assay: Increase in plant height of Solanum lycopersicum (tomato) exposed to 180 L/ha compound fumigation treatment measured 30 days after compound treatment (reference value: 28.4 cm); assay type: functional
[3] = system: Solanum lycopersicum; assay: Increase in plant height of Solanum lycopersicum (tomato) exposed to 90 L/ha compound fumigation treatment measured 50 days after compound treatment (reference value: 86.2 cm); assay type: functional
[4] = system: Cucumis sativus; assay: Increase in plant height of Cucumis sativus (cucumber) exposed to 180 L/ha compound fumigation treatment measured 30 days after compound treatment (reference value: 85.6 cm); assay type: functional
[5] = system: Cucumis sativus; assay: Increase in plant height of Cucumis sativus (cucumber) exposed to 120 L/ha compound fumigation treatment measured 30 days after compound treatment (reference value: 85.6 cm); assay type: functional
[6] = system: Cucumis sativus; assay: Increase in plant height of Cucumis sativus (cucumber) exposed to 90 L/ha compound fumigation treatment measured 30 days after compound treatment (reference value: 85.6 cm); assay type: functional
[7] = system: Arenaria serpyllifolia; assay: Herbicidal activity against Arenaria serpyllifolia in cucumber plants fields exposed to 90 L/ha compound fumigation treatment assessed as hand weeding time per plot (reference value: 258.3 hr/ha); assay type: functional
[8] = system: Capsella bursa-pastoris; assay: Herbicidal activity against Capsella bursa-pastoris in cucumber plants fields exposed to 90 L/ha compound fumigation treatment assessed as hand weeding time per plot (reference value: 258.3 hr/ha); assay type: functional
[9] = system: Digitaria sanguinalis; assay: Herbicidal activity against Digitaria sanguinalis (hairy crabgrass) in cucumber plants fields exposed to 120 L/ha compound fumigation treatment assessed as hand weeding time per plot (reference value: 258.3 hr/ha); assay type: functional
[10] = system: Capsella bursa-pastoris; assay: Herbicidal activity against Capsella bursa-pastoris in cucumber plants fields exposed to 120 L/ha compound fumigation treatment assessed as hand weeding time per plot (reference value: 258.3 hr/ha); assay type: functional
[11] = system: Botrytis cinerea; assay: Fungicidal activity against Botryotinia fuckeliana-induced withering in tomato plants at 120 to 180 L/ha measured 20 to 60 days post compound treatment; assay type: functional, organism-based
[12] = system: Meloidogyne incognita; assay: Nematicidal activity against Meloidogyne incognita (root-knot nematode) in cucumber growing fields exposed to 120 L/ha compound fumigation treatment assessed as root galling index measured 20 days after compound treatment (reference value: 8.72 root galling index); assay type: functional
[13] = system: Solanum lycopersicum; assay: Increase in crop yield in Cucumis sativus (cucumber) plants exposed to 120 L/ha compound fumigation treatment assessed as marketable yield fruit yield (reference value: 65.3 ton/ha); assay type: functional
[14] = system: Solanum lycopersicum; assay: Increase in crop yield in Cucumis sativus (cucumber) plants exposed to 180 L/ha compound fumigation treatment assessed as marketable yield fruit yield (reference value: 65.3 ton/ha); assay type: functional
[15] = system: Arenaria serpyllifolia; assay: Herbicidal activity against Arenaria serpyllifolia in tomato plants fields exposed to 90 L/ha compound fumigation treatment assessed as hand weeding time per plot (reference value: 243.3 hr/ha); assay type: functional
[16] = system: Digitaria sanguinalis; assay: Herbicidal activity against Digitaria sanguinalis (hairy crabgrass) in tomato plants fields exposed to 90 L/ha compound fumigation treatment assessed as hand weeding time per plot (reference value: 243.3 hr/ha); assay type: functional
[17] = system: Capsella bursa-pastoris; assay: Herbicidal activity against Capsella bursa-pastoris in tomato plants fields exposed to 90 L/ha compound fumigation treatment assessed as hand weeding time per plot (reference value: 243.3 hr/ha); assay type: functional
[18] = system: Digitaria sanguinalis; assay: Herbicidal activity against Digitaria sanguinalis (hairy crabgrass) in tomato plants fields exposed to 120 L/ha compound fumigation treatment assessed as hand weeding time per plot (reference value: 243.3 hr/ha); assay type: functional
[19] = system: Capsella bursa-pastoris; assay: Herbicidal activity against Capsella bursa-pastoris in tomato plants fields exposed to 120 L/ha compound fumigation treatment assessed as hand weeding time per plot (reference value: 243.3 hr/ha); assay type: functional
[20] = system: Capsella bursa-pastoris; assay: Herbicidal activity against Capsella bursa-pastoris in tomato plants fields exposed to 180 L/ha compound fumigation treatment assessed as hand weeding time per plot (reference value: 243.3 hr/ha); assay type: functional
[21] = system: Meloidogyne incognita; assay: Nematicidal activity against Meloidogyne incognita (root-knot nematode) in tomato growing fields exposed to 90 L/ha compound fumigation treatment assessed as root galling index measured 20 days after compound treatment (reference value: 8.51 root galling index); assay type: functional
[22] = system: Meloidogyne incognita; assay: Nematicidal activity against Meloidogyne incognita (root-knot nematode) in tomato growing fields exposed to 120 L/ha compound fumigation treatment assessed as root galling index measured 20 days after compound treatment (reference value: 8.51 root galling index); assay type: functional
[23] = system: Meloidogyne incognita; assay: Nematicidal activity against Meloidogyne incognita (root-knot nematode) in tomato growing fields exposed to 180 L/ha compound fumigation treatment assessed as root galling index measured 20 days after compound treatment (reference value: 8.51 root galling index); assay type: functional
[24] = system: Solanum lycopersicum; assay: Increase in crop yield in Cucumis sativus (cucumber) plants exposed to 90 L/ha compound fumigation treatment assessed as medium fruit yield (reference value: 38.6 ton/ha); assay type: functional
[25] = system: Capsella bursa-pastoris; assay: Herbicidal activity against Capsella bursa-pastoris in cucumber plants fields exposed to 180 L/ha compound fumigation treatment assessed as hand weeding time per plot relative to untreated control; assay type: functional
[26] = system: Arenaria serpyllifolia; assay: Herbicidal activity against Arenaria serpyllifolia in tomato plants fields exposed to 90 L/ha compound fumigation treatment assessed as hand weeding time per plot relative to untreated control; assay type: functional
[27] = system: Capsella bursa-pastoris; assay: Herbicidal activity against Capsella bursa-pastoris in tomato plants fields exposed to 90 L/ha compound fumigation treatment assessed as hand weeding time per plot relative to untreated control; assay type: functional
[28] = system: Digitaria sanguinalis; assay: Herbicidal activity against Digitaria sanguinalis (hairy crabgrass) in tomato plants fields exposed to 120 L/ha compound fumigation treatment assessed as hand weeding time per plot relative to untreated control; assay type: functional
[29] = system: Capsella bursa-pastoris; assay: Herbicidal activity against Capsella bursa-pastoris in tomato plants fields exposed to 120 L/ha compound fumigation treatment assessed as hand weeding time per plot relative to untreated control; assay type: functional
[30] = system: Solanum lycopersicum; assay: Increase in crop yield in Solanum lycopersicum (tomato) plants exposed to 180 L/ha compound fumigation treatment assessed as medium fruit yield (reference value: 32.3 ton/ha); assay type: functional
[31] = system: Solanum lycopersicum; assay: Increase in crop yield in Cucumis sativus (cucumber) plants exposed to 120 L/ha compound fumigation treatment assessed as large fruit yield (reference value: 19.5 ton/ha); assay type: functional
[32] = system: Arenaria serpyllifolia; assay: Herbicidal activity against Arenaria serpyllifolia in cucumber plants fields exposed to 180 L/ha compound fumigation treatment assessed as hand weeding time per plot relative to untreated control; assay type: functional
[33] = system: Digitaria sanguinalis; assay: Herbicidal activity against Digitaria sanguinalis (hairy crabgrass) in cucumber plants fields exposed to 180 L/ha compound fumigation treatment assessed as hand weeding time per plot relative to untreated control; assay type: functional
[34] = system: Solanum lycopersicum; assay: Increase in crop yield in Solanum lycopersicum (tomato) plants exposed to 120 L/ha compound fumigation treatment assessed as large fruit yield (reference value: 15.2 ton/ha); assay type: functional
[35] = system: Solanum lycopersicum; assay: Increase in crop yield in Solanum lycopersicum (tomato) plants exposed to 90 L/ha compound fumigation treatment assessed as large fruit yield (reference value: 15.2 ton/ha); assay type: functional
[36] = system: Solanum lycopersicum; assay: Increase in crop yield in Cucumis sativus (cucumber) plants exposed to 90 L/ha compound fumigation treatment assessed as extra-large fruit yield (reference value: 7.2 ton/ha); assay type: functional
[37] = system: Arenaria serpyllifolia; assay: Herbicidal activity against Arenaria serpyllifolia in cucumber plants fields exposed to 90 L/ha compound fumigation treatment assessed as hand weeding time per plot relative to untreated control; assay type: functional

Compound `Cl/C=C/CCl` [1,3-DICHLOROPROPENE] has an Activity [1] of 32.4 cm, an Activity [2] of 45.4 cm and an Activity [3] of 98.3 cm. It also gave an Activity [4] of 105.6 cm, an Activity [5] of 96.8 cm and an Activity [6] of 92.6 cm. It also gave a Time [7] of 90.5 hr/ha, a Time [8] of 90.5 hr/ha and a Time [9] of 74.4 hr/ha. For the same compound, the Time [10] was 74.4 hr/ha, the Activity [11] was “Active” and the Root_galling_index [12] was 2.92. It also gave a Crop_yield [13] of 89.1 tons/ha, a Crop_yield [14] of 98.8 tons/ha and a Time [15] of 85.6 hr/ha. For the same compound, the Time [16] was 85.6 hr/ha, the Time [17] was 85.6 hr/ha and the Time [18] was 66.4 hr/ha. The Time [19] was 66.4 hr/ha, the Time [20] was 55.6 hr/ha and the Root_galling_index [21] was 3.28. The Root_galling_index [22] was 2.84, the Root_galling_index [23] was 2.34 and the Crop_yield [24] was 47.7 tons/ha. It also gave an Activity [25] of 45%, an Activity [26] of 45% and an Activity [27] of 45%. For the same compound, the Activity [28] was 45%, the Activity [29] was 45% and the Crop_yield [30] was 45.3 tons/ha. For the same compound, the Crop_yield [31] was 27.9 tons/ha, the Activity [32] was 45% and the Activity [33] was 45%. The Crop_yield [34] was 19.2 tons/ha, the Crop_yield [35] was 18.9 tons/ha and the Crop_yield [36] was 11.5 tons/ha. For the same compound, the Activity [37] was 45%.
